This is an account of results in article PMC3925085, “Subditine, a New Monoterpenoid Indole Alkaloid from Bark of Nauclea subdita (Korth.) Steud. Induces Apoptosis in Human Prostate Cancer Cells” (PLoS ONE, 2014).

In test [1] the test system is LNCaP human prostate cancer cells. The test can be described thus: MTT cell proliferation assay, LNCaP. The test is classed as cell-based. As for the experimental part: (§1) Human prostate normal cell line (RWPE-1) and human prostate cancer cell lines; LNCaP and PC-3, were purchased from the American Type Culture Collection (ATCC, Manassas, Virginia, USA). LNCaP and PC-3 cells were grown in Roswell Park Memorial Institute medium (RPMI) supplemented with 10% heat-inactivated fetal bovine serum (FBS, Sigma-Aldrich, St. Louis, MO), 1% penicillin and streptomycin. RWPE-1 cells were maintained in Keratinocyte Serum Free Medium (K-SFM, ATCC) supplemented with bovine pituitary extract (BPE) and human recombinant epidermal growth factor (EGF). Mediums were supplemented with 10% heat-inactivated fetal calf serum (Sigma.), 100 U/ml penicillin and […] streptomycin (Flowlab, Sydney, Australia). All cells were maintained in a humidified atmosphere of 5% CO2 in air at 37°C incubator.
(§2) The anti-proliferative activity was evaluated by performing MTT assays as previously described with minor modifications. Briefly, cells were seeded 24 hours prior to treatment in a 96-well plate at 5×10^4 cells/well in order to obtain 70% to 80% confluent cultures. The compounds were dissolved in DMSO (Sigma Chemical Co., St. Louis, Missouri, USA) followed by a 2×serial dilution for 10 points ranged from 0.825 µM to 100 µM. The 96-well plate was incubated for 24 hours at 37°C in a humidified atmosphere with 5% CO2. At the end of incubation, 50 µl of MTT solution (2 mg/ml; Sigma) was added to each well. The plate was then incubated for 4 hours. All medium was removed and the purple formazan crystal formed at the bottom of the wells was dissolved with 200 µl DMSO for 20 minutes. The absorbance at 570 nm was read on a spectrophotometric plate reader (Hidex). The proportion of surviving cells was calculated as: […]
(§3) Dose-response curves were constructed to obtain the IC50 values. Experimental data were derived from 3 independent experiments. The selectivity index was obtained by mean IC50 RWPE-1/mean IC50 of LNCaP or PC-3.
(Formazan colour is commonly taken as a measure of viable cells.)

Test [2] has as its system PC-3 human prostate cancer cells. As to the kind of experiment: MTT cell proliferation assay, PC-3. The format is cell-based. The method, then: as §1, §2, §3
A further test deals with caspase-9 in LNCaP cells. The test can be described thus: Caspase-Glo 9 bioluminescent assay, LNCaP. The test is classed as cell-based, human. As for the experimental part: (§4) A time-dependent study of caspase-3/7, -8, and -9 activities was performed in triplicates using assay kits Caspase-Glo 3/7, 8, and 9 (Promega Corp.,Madison,WI, USA) on white 96-well microplate as described previously. A total of 10,000 cells per well was seeded and treated with […] of subditine (1) for 6, 12, 18, 24, and 30 hours. Then, 100 µL of the caspase-Glo reagent was added, incubated at room temperature for 30 minutes and measured using Tecan Infinite 200 Pro (Tecan, Mannedorf, Swizerland) microplate reader.

The test system of another test is caspase-8 in PC-3 cells. The test can be described thus: Caspase-Glo 8 bioluminescent assay, PC-3. The test is classed as cell-based, human. The note with it: PC-3, 12.5 µM, throughout 30 hours. As for the experimental part: as §4
In test [3] the test system is intracellular ROS in LNCaP cells. The test can be described thus: ROS assay (DHE dye, Cellomics HCS), LNCaP. The test is classed as cell-based, human. The settings on record: LNCaP, 12.5, 25, 50 µM, 24 h. The method, then:
The production of intracellular ROS was detected as described previously. The DHE dye reagent is converted to fluorescent ethidium and intercalates into DNA in response intracellular ROS. Briefly, 10 mM DHE stock solution (in methanol) was diluted 500-fold in HBSS without serum or other additives to yield a 20 µM working solution. After exposure to subditine (1), the cells in the 96-well black plate was washed twice with HBSS and then incubated in 100 µL working solution of DHE at 37°C for 30 minutes. Fluorescence of DCF in each cell was captured, extracted and analyzed with ArrayScan II Data Acquisition and Data Viewer version 3.0 (Cellomics).

A further test concerns LNCaP cells. The test can be described thus: Hoechst 33342 / phalloidin staining, LNCaP. The format is cell-based, human. The settings on record: 24 hours. The method, then: (§5) Cytoskeletal and nuclear morphological changes of LNCaP and PC-3 cells were examined by phalloidin (detects F-actin) and Hoechst 33342 staining. […] At concentration 12.5 µM and 25 µM, nuclear condensation and fragmentation were detected at 24 hours after subditine (1) treatment (Figure 4).
(§6) Figure 3 Subditine (1) induced cytoskeletal rearrangement at the peripheral. LNCaP and PC-3 cells were treated with subditine (1) at various concentrations for 24 hours. Cells were fixed and stained with Hoechst (blue) and phalloidin (red) dye which stained nucleus and polymerized actin (F-actin), respectively. Bar chart showing average fluorescent intensity of phalloidin (mean ± S.D.; *p<0.05).
(§7) Figure 4 Subditine (1) treatment leads to nuclear DNA fragmentation. LNCaP and PC-3 cells were treated with subditine (1) (12.5 µM and 25 µM) for 24 h. Cells were then fixed and stained with Hoescht 33342 (blue). Red circles indicate DNA shrinkage or fragmentation. Images were captured using Cellomic arrayscan system.

In the next test the test system is PC-3 cells. The test can be described thus: Hoechst 33342 / phalloidin staining, PC-3. The test is classed as cell-based, human. The note with it: PC-3, 12.5 µM and 25 µM, 24 hours, P<0.05. As for the experimental part: as §5, §6, §7
For test [4], the system named is Bcl-xL expression in PC-3 cells. As to the kind of experiment: Western blotting, Bcl-xL in PC-3. The format is cell-based, human. The settings on record: 24 h. The method, then: (§8) To determine protein expression, 1×10^6 cells/mL were seeded and treated with subditine (1) or paclitaxel for 24 h. Whole cell extracts were prepared as previously described. Briefly, cells were collected, lysed and resolved on 10% SDS-polyacrylamide gels. After electrophoresis, the proteins were transferred to PVDF membranes (Millipore), blocked with 5% nonfat dry milk in PBS-T (0.05% Tween 20) for 1 hour at room temperature. Membranes were probed with primary rabbit anti-Bcl-2, Bcl-xL or p53 antibodies followed by horseradish peroxidase (HRP)-conjugated secondary anti-rabbit antibody (Cell Signaling Technology Inc., CA, USA). Membranes were stripped and reprobed with mouse anti-β-actin antibody as loading control (Santa Cruz Biotechnology Inc.). Protein-antibody complexes were detected with Amersham ECL prime Western blotting detection reagent (GE Healthcare, USA).
On the technique in general: Immunoblotting shows a protein as a band on a membrane.

Test [5] concerns p53 expression in LNCaP cells. As to the kind of experiment: Western blotting, p53 in LNCaP. The format is cell-based, human. The settings on record: LNCaP (p53-wild-type), 24 h. The method, then: as §8

As for `Cc1ncc2c(=O)n3c(cc2c1C=O)-c1[nH]c2ccccc2c1CC3` [Subditine, subditine], the IC50 – broadly, the concentration at which inhibition is half-maximal – turned out to be 12.2 ± 0.19 µM in test [1] (Homo sapiens, MTT, 24 hours, LNCaP, mean ± S.D.) and 14 ± 0.32 µM in test [2] (Homo sapiens, MTT, 24 hours, PC-3, mean ± S.D.). Besides, in test [1] (LNCaP vs RWPE-1), the “folds more potent against LNCaP than normal prostate cells RWPE-1” value was found to be 2.5 folds. The “selectivity index (SI) LNCaP” value in [1] (mean IC50 RWPE-1/mean IC50 of LNCaP) is 2.49. The “folds more potent against PC-3 than normal prostate cells RWPE-1” value in [2] (PC-3 vs RWPE-1) stood at 2.2 folds. Further, the “selectivity index (SI) PC-3” value in test [2] (mean IC50 RWPE-1/mean IC50 of PC-3) turned out to be 2.18. In addition, the caspase-9 activity result in the test with caspase-9 in LNCaP cells (after 12 and 24 hours exposure, 12.25 µM) was “significant increase”. Moreover, the “time of highest caspase-9 activity” value in the test on caspase-9 in LNCaP cells (time points 6-30 hours) worked out at 24 h. The “caspase 8 activity” value with caspase-8 in PC-3 cells was “No significant fold-change”. The “ROS production (DCF/DHE fluorescence level)” value in test [3] is given as “significantly increased in a dose-dependent manner”. Further, the “nuclear intensity (apoptotic chromatin changes)” value in the test on LNCaP cells (12.5 µM and 25 µM, P<0.05) was “significantly increased”; with PC-3 cells it was “significantly increased”. Also, in the test on LNCaP cells (various concentrations), the “phalloidin (F-actin) intensity” value was “Dose-dependent increased”. Further, the Bcl-xL protein expression entry in test [4] (PC-3, 12.5 µM, compared to control) was “no significant change”; in test [4] (PC-3, 25 and 50 µM), “drastically down-regulated”. The p53 expression entry in test [5] was “up-regulate”.
